Experiments:
IL-1β = assay: serum IL-1β of AKI mice (ELISA); format: in vivo, mouse; conditions: Cis or AA I AKI mice; DNase I 10 mg/kg i.p.
Experimental: Aristolochic acid I sodium salt was dissolved in PBS to 1 mg/mL and injected intraperitoneally at a dose of 10 mg/kg (body weight) every 24 h for 3 days; cisplatin was dissolved in PBS to 1.5 mg/mL for one-time intraperitoneal 25 mg/kg injection; LPS (Sigma, Cat#L2630) was dissolved in PBS to 2.5 mg/mL for one-time intraperitoneal 25 mg/kg injection; deoxyribonuclease I (DNase I, Sigma, Cat#SLBV1446) was dissolved in PBS to 1 mg/mL and injected intraperitoneally at a dose of 10 mg/kg at 4 h before cisplatin or AA I injection and every 24 h after injection. Disulfiram (MedChemExpress, CAS:97-77-8) was diluted in corn oil to 12.5 mg/mL and injected 50 mg/kg intraperitoneally every 24 h after cisplatin or AA I administration. Cu(II) (Sigma, Cat#344419) was dissolved in PBS to 30 µg/mL and administered intraperitoneally 6 h before disulfiram at a dose of 0.15 mg/kg; TNF-α (Peprotech, Cat#315-01 A) was dissolved in PBS to 10 µg/mL and injected at 100 µg/kg once through the caudal vein 24 h before cisplatin injection. […]
To measure the levels of CXCL10, IFN-β, IL-1β, and IL-18, mouse serum or cell culture medium was collected and measured by ELISA (NeoBioscience, China) according to the manufacturer’s instructions.

AKI mice [1] = assay: overall therapeutic effect in AKI mice; format: in vivo, mouse; conditions: for alleviation of AKI compared with MCC950: DNase I, disulfiram vs NLRP3 inhibitor MCC950
Experimental: (§1) Aristolochic acid I sodium salt was dissolved in PBS to 1 mg/mL and injected intraperitoneally at a dose of 10 mg/kg (body weight) every 24 h for 3 days; cisplatin was dissolved in PBS to 1.5 mg/mL for one-time intraperitoneal 25 mg/kg injection; LPS (Sigma, Cat#L2630) was dissolved in PBS to 2.5 mg/mL for one-time intraperitoneal 25 mg/kg injection; deoxyribonuclease I (DNase I, Sigma, Cat#SLBV1446) was dissolved in PBS to 1 mg/mL and injected intraperitoneally at a dose of 10 mg/kg at 4 h before cisplatin or AA I injection and every 24 h after injection. Disulfiram (MedChemExpress, CAS:97-77-8) was diluted in corn oil to 12.5 mg/mL and injected 50 mg/kg intraperitoneally every 24 h after cisplatin or AA I administration. Cu(II) (Sigma, Cat#344419) was dissolved in PBS to 30 µg/mL and administered intraperitoneally 6 h before disulfiram at a dose of 0.15 mg/kg; TNF-α (Peprotech, Cat#315-01 A) was dissolved in PBS to 10 µg/mL and injected at 100 µg/kg once through the caudal vein 24 h before cisplatin injection. Metformin (Sigma, Cat#D150959) was dissolved in PBS to 5 mg/mL and injected intraperitoneally at a dose of 50 mg/kg 24 h before cisplatin or AA I injection and every 24 h after injection. MCC950 (MedChem Express, CAS:256373-96-3) was dissolved in PBS to 5 mg/mL and injected intraperitoneally at a dose of 50 mg/kg 12 h before cisplatin or AA I injection and every 12 h after injection; berberine (APExBIO, Cat#N1368) was dissolved in PBS to 5 mg/mL and 5 mg/kg injected intraperitoneally at 36, 24 and 12 h before cisplatin; A20-derived-peptide was dissolved in ddH2O to 3 mg/mL and injected intraperitoneally at a dose of 15 mg/kg 1 h before cisplatin. To supervise the effects of various treatments on survival time and rate, the mice were observed, and survival curves were generated. To investigate the specific mechanisms, whole blood was retrieved from the orbit, serum was separated through centrifugation on the 4th day, and the mice were then sacrificed by cervical dislocation. Mice were randomly assigned in experiments, while there was no blinding during the animal experiments.

AKI mice [2] = assay: survival of AKI mice; format: in vivo, mouse; conditions: n = 10 per group
Experimental: as §1

AKI mice [3] = assay: tubular injury / renal injury of AKI mice (HE histology); format: in vivo, mouse
Experimental: (§2) LPS (Sigma, Cat#L2630) was dissolved in PBS to 2.5 mg/mL for one-time intraperitoneal 25 mg/kg injection; deoxyribonuclease I (DNase I, Sigma, Cat#SLBV1446) was dissolved in PBS to 1 mg/mL and injected intraperitoneally at a dose of 10 mg/kg at 4 h before cisplatin or AA I injection and every 24 h after injection. Disulfiram (MedChemExpress, CAS:97-77-8) was diluted in corn oil to 12.5 mg/mL and injected 50 mg/kg intraperitoneally every 24 h after cisplatin or AA I administration. Cu(II) (Sigma, Cat#344419) was dissolved in PBS to 30 µg/mL and administered intraperitoneally 6 h before disulfiram at a dose of 0.15 mg/kg; TNF-α (Peprotech, Cat#315-01 A) was dissolved in PBS to 10 µg/mL and injected at 100 µg/kg once through the caudal vein 24 h before cisplatin injection. […] MCC950 (MedChem Express, CAS:256373-96-3) was dissolved in PBS to 5 mg/mL and injected intraperitoneally at a dose of 50 mg/kg 12 h before cisplatin or AA I injection and every 12 h after injection; berberine (APExBIO, Cat#N1368) was dissolved in PBS to 5 mg/mL and 5 mg/kg injected intraperitoneally at 36, 24 and 12 h before cisplatin; […] To supervise the effects of various treatments on survival time and rate, the mice were observed, and survival curves were generated. To investigate the specific mechanisms, whole blood was retrieved from the orbit, serum was separated through centrifugation on the 4th day, and the mice were then sacrificed by cervical dislocation. Mice were randomly assigned in experiments, while there was no blinding during the animal experiments. Renal function was evaluated based on serum creatinine level and histological features. Serum creatinine was determined in the Clinical Pharmacology Lab, Clinical Trial Center, WCH, SCU. The kidneys were extracted from euthanized mice, immediately fixed with 4% paraformaldehyde, and embedded in paraffin. Furthermore, the samples were cut into 5 µm thick sections. These tissue samples were subjected to hematoxylin-eosin (HE) and […] according to standard protocols with HE reagent (Biosharp, Cat#BL702B, BL703B) and Masson reagent (Servicebio, Cat#G1006-100ML). The pathological changes were detected through optical microscopy, and the tubulointerstitial injury score was determined as previously reported.

GSDMD cleavage in iBMDMs = assay: cleavage of GSDMD in iBMDMs after ox-self-DNA treatment (immunoblot); format: cell-based, mouse; conditions: AA-DNA with or without MCC950, Fig. 3i
Experimental: For immunoblot analysis of kidney tissue, total protein lysates were prepared from renal tissue, which was ground in liquid nitrogen and then added to lysis buffer in a Total Protein Extraction Kit (Signalway Antibody, Cat#PE001). Samples were centrifuged at 12,000 rpm for 15 min at 4 °C, and the supernatant was collected immediately. For immunoblot analysis of cells, cultured cells after treatment were lysed with lysis buffer, which was premixed with protease and phosphatase inhibitors (Signalway Antibody, Cat#PE001). The samples were centrifuged at 12,000 r/min for 15 min at 4 °C, and the supernatant was collected immediately. […]
(§3) Prepared protein samples were subjected to 6-15% SDS polyacrylamide gels and separated according to the protein concentrations. […] The protein bands were detected with an enhanced chemiluminescence kit (Millipore, Cat#WBKLS0500) using a gel imaging system (Bio-Rad, USA) for visualization and standardization of the amount of protein loaded. α-Tubulin was used as the internal control.
Self-DNA was isolated from the mouse kidney tissue using a DNeasy®Blood & Tissue Kit (QIAGEN, REF#69504) according to the manufacturer’s instructions. The isolated self-DNA were mixed with PicoGreen reagent, and then detected via employing SpectraMax iD3 microplate reader (Molecular Devices), with 502 nm incident ray and 523 nm emergent light. […]

A20 = A20 protein expression in iBMDMs / BMDMs (immunoblot); format: cell-based, mouse
Experimental: For immunoblot analysis of kidney tissue, total protein lysates were prepared from renal tissue, which was ground in liquid nitrogen and then added to lysis buffer in a Total Protein Extraction Kit (Signalway Antibody, Cat#PE001). Samples were centrifuged at 12,000 rpm for 15 min at 4 °C, and the supernatant was collected immediately. For immunoblot analysis of cells, cultured cells after treatment were lysed with lysis buffer, which was premixed with protease and phosphatase inhibitors (Signalway Antibody, Cat#PE001). The samples were centrifuged at 12,000 r/min for 15 min at 4 °C, and the supernatant was collected immediately. Ultimately, both types of protein samples were then mixed with 4× Laemmli loading buffer (Bio-Rad, Cat#1610747) and denatured by boiling at 95 °C for 5 min.
as §3, with “concentrations. Then, the protein bands were transferred to polyvinylidene difluoride (PVDF) membranes by a wet transfer apparatus (Bio-Rad, USA).” for “concentrations.”

Tnfaip3 mRNA = Tnfaip3 mRNA in iBMDMs (quantitative PCR); format: cell-based, mouse; conditions: ox-dsDNA90 or CDNs, BAY11-7082 1 μM, 4 h pretreated, Fig. 4j,k, n = 3
Experimental: Total RNA was extracted from around 1 × 10^6 cultured cells per population and purified by employing an RNA simple Total RNA Kit (TIANGEN, Cat#DP419), Following column purification, RNA was immediately reversed to cDNA by implementing the PrimeScript reverse transcription reagent kit (Takara, RR047A) according to the manufacturer’s instructions. The concentration of RNA was measured with a NanoDrop 2000 (Thermo Fisher Scientific, USA). Reverse transcription polymerase chain reaction (qRT‒PCR) was performed using SYBR Premix Ex Taq (Takara, CAT#172-5124) in an ABI7500 real-time PCR system (Applied Biosystems, CA). The primer sequences are shown in Supplementary Table 2. Relative gene expression was presented as fold changes normalized by Gapdh using the 2^−ΔΔCt method.

AKI mice [4] = assay: serum creatinine of AKI mice; format: in vivo, mouse; conditions: mice following injection of cisplatin; berberine 5 mg/kg i.p.; vs PBS
Experimental: as §2

AKI mice [5] = assay: renal fibrosis of AKI mice (Masson staining); format: in vivo, mouse; conditions: mice following injection of cisplatin; berberine 5 mg/kg i.p.; vs PBS
Experimental: LPS (Sigma, Cat#L2630) was dissolved in PBS to 2.5 mg/mL for one-time intraperitoneal 25 mg/kg injection; deoxyribonuclease I (DNase I, Sigma, Cat#SLBV1446) was dissolved in PBS to 1 mg/mL and injected intraperitoneally at a dose of 10 mg/kg at 4 h before cisplatin or AA I injection and every 24 h after injection. Disulfiram (MedChemExpress, CAS:97-77-8) was diluted in corn oil to 12.5 mg/mL and injected 50 mg/kg intraperitoneally every 24 h after cisplatin or AA I administration. Cu(II) (Sigma, Cat#344419) was dissolved in PBS to 30 µg/mL and administered intraperitoneally 6 h before disulfiram at a dose of 0.15 mg/kg; TNF-α (Peprotech, Cat#315-01 A) was dissolved in PBS to 10 µg/mL and injected at 100 µg/kg once through the caudal vein 24 h before cisplatin injection. […] Renal function was evaluated based on serum creatinine level and histological features. Serum creatinine was determined in the Clinical Pharmacology Lab, Clinical Trial Center, WCH, SCU. […] The pathological changes were detected through optical microscopy, and the tubulointerstitial injury score was determined as previously reported.

NEK7 = conditions: cited from earlier work
Excerpt: Furthermore, we investigated the potential therapeutic medicines targeting to NEK7 and evaluated their effects on alleviating AKI. […] A ...

Compound: deoxyribonuclease I [DNase I]
- serum level of IL-1β (in words) (IL-1β): significantly reduced serum level of IL-1β
- therapeutic effect compared to Sting-knockout mice (AKI mice [1]; DNase I 10 mg/kg i.p. 4 h before cisplatin or AA I and every 24 h after): more pronounced compared to that in Sting^−/− mice
- alleviation of AKI compared with MCC950 (AKI mice [1]): more effective in alleviating AKI than the NLRP3 inhibitor MCC950

Compound: CC(C)(O)c1coc(S(=O)(=O)NC(=O)Nc2c3c(cc4c2CCC4)CCC3)c1 [MCC950]
- survival (AKI mice [2]; mice treated with nephrotoxic drugs (Cis, AA I), MCC950 50 mg/kg i.p. 12 h before and every 12 h after): improved the survival
- tubular injury (in words) (AKI mice [3]; mice treated with nephrotoxic drugs (Cis, AA I), MCC950 50 mg/kg i.p.): attenuate tubular injury
- progression of AKI (AKI mice [1]; MCC950 50 mg/kg i.p.): significantly alleviated the progression of AKI
- cleavage of GSDMD (GSDMD cleavage in iBMDMs): significantly reduced the cleavage of GSDMD

Compound: Cc1ccc(S(=O)(=O)/C=C/C#N)cc1 [BAY11-7082]
- increased expression of A20, protein level (A20; iBMDMs, ox-dsDNA90 or CDNs, BAY11-7082 1 μM, 4 h pretreated, Fig. 4l): almost completely inhibited the increased expression of A20 at both the mRNA and protein levels
- increased expression of A20 under ox-DNA stimulation (A20; ox-DNA stimulation, BAY11-7082, discussion): abrogated
- increased expression of A20, mRNA level (Tnfaip3 mRNA): almost completely inhibited the increased expression of A20 at both the mRNA and protein levels

Compound: CCN(CC)C(=S)SSC(=S)N(CC)CC [disulfiram, Disulfiram]
- survival (AKI mice [2]; Cis or AA I mice, disulfiram 50 mg/kg i.p. every 24 h, Cu(II) 0.15 mg/kg i.p. 6 h before disulfiram): improved survival with effects comparable to those of DNase I
- alleviation of AKI compared with MCC950 (AKI mice [1]): more effective in alleviating AKI than the NLRP3 inhibitor MCC950

Compound: COc1ccc2cc3[n+](cc2c1OC)CCc1cc2c(cc1-3)OCO2 [berberine]
- survival (AKI mice [2]; mice following injection of cisplatin, berberine 5 mg/kg i.p. at 36, 24 and 12 h before, vs PBS): improved survival
- serum creatinine (in words) (AKI mice [4]): decreased serum creatinine
- renal injury (in words) (AKI mice [3]; mice following injection of cisplatin, berberine 5 mg/kg i.p., vs PBS): attenuated renal injury
- renal fibrosis (AKI mice [5]): decreased renal fibrosis
- NEK7 activity (literature) (NEK7): inhibit NEK7 activity
